The data set can be described thus: Stress test at 45° C. of bulk Tibolone crystals (increase of Org OM38). It is filed as physicochemical. The protocol:
A solution of (7α, 17α)-3,3-dimethoxy-17-hydroxy-7-methyl-19-norpregn-5(10)-en20-yn-3-one (15 kg) in a mixture of pyridine (630 ml) and ethanol (315 liters) was mixed with a solution of oxalic acid (750 gr) in water (90 liters) and the mixture was stirred for 2 hours at approximately 30° C. The solution was poured out in a mixture of pyridine (1350 ml) and water (300 liters) and the resulting suspension was filtered. The crystals were washed with a mixture of water and pyridine and dried under vacuum at 40° C. to give (7α, 17α)-17-hydroxy-7-methyl-19-norpregn-5(10)-en-20-yn-3-one containing 0.6% of the corresponding (7α, 17α)-17-hydroxy-7-methyl-19-norpregn-4-en-20-yn-3-one as indicated by HPLC analysis; a stress test at 45° C. (duration 1 month) indicated a 0.4% increase of the latter compound.
A solution of (7α, 17α)-3,3-dimethoxy-17-hydroxy-7-methyl-19-norpregn-5(10)-en-20-yn-3-one (15 kg) in a mixture of pyridine (630 ml) and ethanol (315 liters) was mixed with a solution of oxalic acid (375 gr) in water (90 liters) and the mixture was stirred for 3 hours at approximately 30° C. The solution was poured out in a mixture of pyridine (1350 ml) and water (300 liters) and the resulting suspension is filtered. The crystals are washed with a mixture of water and pyridine and allowed to age for 3–6 days at room temperature. Subsequently, the crystals were dried under vacuum at 40° C. to give (7α, 17α)-17-hydroxy-7-methyl-19-norpregn-5(10)-en-20-yn-3-one containing≦0.1% of the corresponding (7α, 17α)-17-hydroxy-7-methyl-19-norpregn-4-en-20-yn-3-one as indicated by HPLC analysis; a stress test at 45° C. (duration 1 week) indicated a<0.1% increase of the latter compound.
The preparation as described in example 2 was repeated. (7α, 17α)-17-hydroxy-7-methyl-19-norpregn-5(10)-en-20-yn-3-one was obtained which contained 0.2% of the corresponding. (7α, 17α)-17-hydroxy-7-methyl-19-norpregn-4-en-20-yn-3-one as indicated by HPLC analysis; a stress test at 45° C. (duration 1 week) indicated a 0.1% increase of the latter compound.

Consider three compounds from patent US6969708B1, “Process for the preparation of a high purity composition comprising (7α, 17α)- 17-hydroxy- 7-methyl- 19-nor-17-pregn-5(10)-en-20-yn-3-one” (Akzo Nobel N.V., priority 1998, dated 2005).

Where only a bound is given, the exact number is not on record here.

As for `C#C[C@]1(O)CCC2C3C(CCC21C)C1=C(CC(=O)CC1)C[C@H]3C` (single isomer, unassigned) [Example 2, (7α, 17α)-17-hydroxy-7-methyl-19-norpregn-5(10)-en-20-yn-3-one], the “increase of (7α, 17α)-17-hydroxy-7-methyl-19-norpregn-4-en-20-yn-3-one in stress test” value (shortened to “increase”) (duration 1 week) is less than 0.1%.

Consider `C#C[C@]1(O)CCC2C3C(CCC21C)C1=C(CC(=O)CC1)C[C@H]3C` (single isomer, unassigned) [Example 3, (7α, 17α)-17-hydroxy-7-methyl-19-norpregn-5(10)-en-20-yn-3-one], for which, where the note is “duration 1 week”, the “increase” value worked out at 0.1%.

With `C#C[C@]1(O)CCC2C3C(CCC21C)C1=C(CC(=O)CC1)C[C@H]3C` (stereo partly drawn) [Example 1, (7α, 17α)-17-hydroxy-7-methyl-19-norpregn-5(10)-en-20-yn-3-one], under “duration 1 month”, the “increase” value is on record as 0.4%.
